Laboratory results taken from patent US6375461B1 (Ultradent Products, Inc., priority 2000, dated 2002).
Like-named read-outs stand apart in the source and are kept apart here.

What was measured:
[1] = tested on: gingival tissue; test: Local effect on gingival tissue when used in gingival retraction cords; format: in vivo, patient
[2] = Reaction with iron-based astringents (ferric salts), formation of colored reaction products; format: physicochemical; details: mixed with astringent salts
[3] = cited from earlier work
[4] = tested on: heart rate and blood pressure; test: Systemic effects (heart rate, blood pressure) of retraction cords packed into the gingival sulcus; details: retraction cords packed into a person's gingival sulcus
[5] = tested on: heart rate and blood pressure; details: in vivo
[6] = mixed with ferric salts; cited from earlier work

SMILES	stiffening and retraction of gingival tissue ([1]; gingival tissue)	vasoconstricting effect ([1]; used in gingival retraction cords)	colored reaction products with astringent salts including ferric salts [2]	volume of water in which 1 gram is dissolvable [3] [mL]	systemic effects: heart rate and blood pressure [4]	systemic effects: heart rate and blood pressure [5]	colored reaction products with ferric salts (known) [6]
CNC(C)CC1CCCCC1 (stereo not drawn) [Propylhexedrine, N,α-dimethylcyclohexaneethylamine]	localized stiffening and retraction of gingival tissue	localized vasoconstricting effect	without forming colored reaction products	500	does not produce the systemic adrenal effects	–	–
CNC[C@H](O)c1ccc(O)c(O)c1 [epinephrine]	–	–	–	–	–	increase a patient's heart rate and blood pressure	immediately form purple-colored reaction products
